From ChEMBL document CHEMBL1671758, “Environmental study of azole-resistant Aspergillus fumigatus and other aspergilli in Austria, Denmark, and Spain” (2010)
≈ marks a conversion by molar mass, not a printed value. Calls of active or inactive are those of the source. No cut-off for these calls is given here.

Experiments:
Aspergillus nidulans = test: Antifungal activity against Aspergillus nidulans isolate; type: functional
Aspergillus fumigatus [1] = test: Antifungal activity against azole-susceptible Aspergillus fumigatus isolate CM-237 by EUCAST microdilution method; type: functional
Aspergillus fumigatus [2] = test: Antifungal activity against Aspergillus fumigatus isolates harboring Cyp51A TR/L98H mutation by EUCAST method; type: functional
Aspergillus niger = test: Antifungal activity against Aspergillus niger isolate; type: functional
Aspergillus fumigatus [3] = test: Antifungal activity against azole-susceptible Aspergillus fumigatus isolate CM-237 assessed as fungal growth at 4 mg/l relative to control; type: functional, organism-based
Aspergillus fumigatus [4] = test: Antifungal activity against azole-resistant Aspergillus fumigatus isolate T18 harboring Cyp51A TR/L98H mutation assessed as inhibition of fungal growth at 4 mg/l relative to control; type: functional, organism-based
Aspergillus lentulus = test: Antifungal activity against Aspergillus lentulus isolate; type: functional
Aspergillus fumigatus [5] = test: Antifungal activity against azole-resistant Aspergillus fumigatus isolate R13 harboring Cyp51A TR/L98H mutant gene assessed as inhibition of fungal growth at 4 mg/l relative to control; type: functional, organism-based
Aspergillus fumigatus [6] = test: Antifungal activity against azole-resistant Aspergillus fumigatus isolate T11 harboring Cyp51A TR/L98H mutant gene assessed as inhibition of fungal growth at 4 mg/l relative to control; type: functional, organism-based
Aspergillus fumigatus [7] = test: Antifungal activity against azole-resistant Aspergillus fumigatus isolate T22 harboring Cyp51A TR/L98H mutation assessed as inhibition of fungal growth at 4 mg/l relative to control; type: functional, organism-based
Aspergillus fumigatus [8] = test: Antifungal activity against azole-resistant Aspergillus fumigatus isolate T18 harboring Cyp51A TR/L98H mutation assessed as inhibition of fungal growth at 0.5 mg/l relative to control; type: functional, organism-based
Aspergillus fumigatus [9] = test: Antifungal activity against azole-resistant Aspergillus fumigatus isolate T22 harboring Cyp51A TR/L98H mutation assessed as inhibition of fungal growth at 0.5 mg/l relative to control; type: functional, organism-based
Aspergillus fumigatus [10] = test: Antifungal activity against azole-resistant Aspergillus fumigatus isolate T11 harboring Cyp51A TR/L98H mutant gene assessed as inhibition of fungal growth at 0.5 mg/l relative to control; type: functional, organism-based
Aspergillus fumigatus [11] = test: Antifungal activity against azole-susceptible Aspergillus fumigatus isolate CM-237 assessed as fungal growth at 0.5 mg/l relative to control; type: functional, organism-based
Aspergillus fumigatus [12] = test: Antifungal activity against azole-resistant Aspergillus fumigatus isolate R13 harboring Cyp51A TR/L98H mutant gene assessed as inhibition of fungal growth at 0.5 mg/l relative to control; type: functional, organism-based
Aspergillus fumigatus [13] = test: Antifungal activity against azole-susceptible Aspergillus fumigatus isolate CM-237 assessed as fungal growth at 1 mg/l relative to control; type: functional, organism-based
Aspergillus fumigatus [14] = test: Antifungal activity against azole-resistant Aspergillus fumigatus isolate T11 harboring Cyp51A TR/L98H mutant gene assessed as inhibition of fungal growth at 1 mg/l relative to control; type: functional, organism-based
Aspergillus fumigatus [15] = test: Antifungal activity against azole-resistant Aspergillus fumigatus isolate T18 harboring Cyp51A TR/L98H mutation assessed as inhibition of fungal growth at 1 mg/l relative to control; type: functional, organism-based
Aspergillus fumigatus [16] = test: Antifungal activity against azole-resistant Aspergillus fumigatus isolate T22 harboring Cyp51A TR/L98H mutation assessed as inhibition of fungal growth at 1 mg/l relative to control; type: functional, organism-based
Aspergillus fumigatus [17] = test: Antifungal activity against azole-resistant Aspergillus fumigatus isolate R13 harboring Cyp51A TR/L98H mutant gene assessed as inhibition of fungal growth at 1 mg/l relative to control; type: functional, organism-based

Which MIC (Aspergillus nidulans) does the source give for CCC(C)n1ncn(-c2ccc(N3CCN(c4ccc(OCC5COC(Cn6cncn6)(c6ccc(Cl)cc6Cl)O5)cc4)CC3)cc2)c1=O (stereo not given) [ITRACONAZOLE] here?
The MIC was 1 µg/mL (≈ 1.42 µM).

And the MIC (Aspergillus fumigatus [1])?
Its MIC is 0.25 µg/mL (≈ 0.354 µM).

And the MIC (Aspergillus fumigatus [2])?
The MIC was > 4 µg/mL.

What about the MIC (Aspergillus niger) of the same compound?
The MIC was 2 µg/mL (≈ 2.83 µM).

What about the Activity (Aspergillus fumigatus [3]) of the same compound?
The Activity was “Active”.

What about the inhibition (Aspergillus fumigatus [4]) of the same compound?
Its inhibition is “inactive”.

And the MIC (Aspergillus lentulus)?
Its MIC is 0.5 µg/mL (≈ 0.709 µM).

And the inhibition (Aspergillus fumigatus [5])?
The inhibition was “Active”.

And the inhibition (Aspergillus fumigatus [6])?
The inhibition was “inactive”.

And the inhibition (Aspergillus fumigatus [7])?
Its inhibition is “inactive”.

Which MIC (Aspergillus nidulans) does the source give for CC[C@@H]([C@H](C)O)n1ncn(-c2ccc(N3CCN(c4ccc(OC[C@@H]5CO[C@@](Cn6cncn6)(c6ccc(F)cc6F)C5)cc4)CC3)cc2)c1=O [POSACONAZOLE] here?
The MIC was 0.5 µg/mL (≈ 0.713 µM).

What about the MIC (Aspergillus fumigatus [1]) of the same compound?
The MIC was 0.06 µg/mL (≈ 0.0856 µM).

And the MIC (Aspergillus fumigatus [2])?
Its MIC is 0.25 µg/mL (≈ 0.357 µM).

And the MIC (Aspergillus niger)?
The MIC was 0.5 µg/mL (≈ 0.713 µM).

What about the inhibition (Aspergillus fumigatus [8]) of the same compound?
The inhibition was “Active”.

What about the inhibition (Aspergillus fumigatus [9]) of the same compound?
Its inhibition is “Active”.

And the inhibition (Aspergillus fumigatus [10])?
Its inhibition is “inactive”.

What about the MIC (Aspergillus lentulus) of the same compound?
The MIC was 0.25 µg/mL (≈ 0.357 µM).

And the Activity (Aspergillus fumigatus [11])?
The Activity was “Active”.

And the inhibition (Aspergillus fumigatus [12])?
The inhibition was “Active”.

What does the source list for C[C@@H](c1ncncc1F)[C@](O)(Cn1cncn1)c1ccc(F)cc1F [VORICONAZOLE]?
MIC (Aspergillus nidulans): 4 µg/mL (≈ 11.5 µM); MIC (Aspergillus fumigatus [1]): 0.5 µg/mL (≈ 1.43 µM); inhibition (Aspergillus fumigatus [13]): Active; MIC (Aspergillus fumigatus [2]): 2 µg/mL (≈ 5.73 µM); MIC (Aspergillus niger): 0.5 µg/mL (≈ 1.43 µM); MIC (Aspergillus lentulus): 4 µg/mL (≈ 11.5 µM); inhibition (Aspergillus fumigatus [14]): Active; Activity (Aspergillus fumigatus [15]): Active; Activity (Aspergillus fumigatus [16]): Active; Activity (Aspergillus fumigatus [17]): inactive
